Measurements published in patent publication US20260327255A1, “LIGAND-DIRECTED COVALENT MODIFICATION OF AMINO ACID SIDE CHAINS USING CYCLIC IMINE MANNICH ELECTROPHILES” (Purdue Research Foundation, priority 2022, published 2026).
Positions count from the first letter of the chain named. pIC50, pKd: −log10 of the molar value. Where a SMILES comes first, the peptide text is derived from it. [ ]: non-standard residue; d: D form. The star is where a group is joined. Benzoyl(4-OPh) = O=C(c1ccc(Oc2ccccc2)cc1)*; Lys(Et2) = CCN(CC)CCCC[C@H](N)C(=O)O; Gly(cPent) = N[C@H](C(=O)O)C1CCCC1

Experiments:
[1] = Stability of cyclic imine inhibitor P1b; format: physicochemical
Description: The sample was split, and one portion was further reduced with sodium cyanoborohydride. LC/MS: UV traces, low resolution mass spectrum. […] Stability was similarly assayed with 24-hour incubation in either 100 mM HCl or 100 mM NaOH.

[2] = target: T1, wild-type CBX8 chromodomain (Homo sapiens, UniProt Q9HC52); assay: Time-dependent fluorescence polarization displacement assay, CBX8; format: binding; details: for time-dependent change of potency (IC50): further incubation; for IC50 without additional incubation time (in words): no additional incubation
T1 construct: recombinant CBX8 chromodomain (ChD)
T1 sequence (Q9HC52 11-69 limits assumed): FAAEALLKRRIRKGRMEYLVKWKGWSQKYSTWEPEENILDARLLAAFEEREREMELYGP
Description: (A) The fraction of labeled protein as determined by UV integration on reverse phase HPLC. CBX8 ChD and P2 were incubated at 10 μM each for 16 hours at 37° C. UV absorption measured at 215 nm. (B) Mass spectra of CBX8 ChD treated overnight with inhibitor P2 (top, red) and control CBX8 ChD (bottom, green). […] (C) Time dependent fluorescence polarization displacement assays of indicated chromodomains with P2. Assays were conducted using SW2_123 as an FP probe (FIG. S15) at 100 nM. All proteins were used at 2 μM in PBS (pH 7), 0.02% Tween 20. Error bars represent s.d.
A fluorescence polarization (FP) displacement assay was used to evaluate the covalent binding of cyclic imine warhead containing inhibitors.
To validate labeling of the targeted tyrosine residue (Y39), this amino acid was mutated to phenylalanine, which is structurally similar but lacks reactivity to the cyclic imine.

[3] = target: T2, mutant CBX8 (Y39F) (Homo sapiens, UniProt Q9HC52, Y39F); assay: Time-dependent fluorescence polarization displacement assay, CBX8 Y39F; format: binding
T2 construct: Time dependent fluorescence polarization displacement assays of indicated chromodomains with P2
T2 sequence (Q9HC52 11-69 Y39F limits assumed): T1 sequence (Q9HC52 11-69 limits assumed) with Y29F
Description: (A) The fraction of labeled protein as determined by UV integration on reverse phase HPLC. CBX8 ChD and P2 were incubated at 10 μM each for 16 hours at 37° C. UV absorption measured at 215 nm. (B) Mass spectra of CBX8 ChD treated overnight with inhibitor P2 (top, red) and control CBX8 ChD (bottom, green). Observed masses are shown (expected average mass for CBX8 ChD=8792 Da). The observed mass difference (895 Da) corresponds to the expected mass change of 901 Da. (C) Time dependent fluorescence polarization displacement assays of indicated chromodomains with P2. Assays were conducted using SW2_123 as an FP probe (FIG. S15) at 100 nM. All proteins were used at 2 μM in PBS (pH 7), 0.02% Tween 20. Error bars represent s.d.
To validate labeling of the targeted tyrosine residue (Y39), this amino acid was mutated to phenylalanine, which is structurally similar but lacks reactivity to the cyclic imine. […] Similarly, for CBX2 ChD, no change in apparent affinity was observed over time in the FP assay (FIG. 13C), and no labeled protein was detected by MS.

[4] = system: HOXA9 gene expression in THP1 cells; assay: qRT-PCR analysis of HOXA9 gene expression in THP1 cells; format: cell-based
Description: FIG. 14 Cellular activity of covalent, cyclic imine inhibitors to CBX8. qRT-PCR analysis of HOXA9 gene expression in THP1 cells after 48 h of compound treatment at the indicated dose. N=3. Error bars represent s.d. Statistical significance determined by Student's T test. *=p<0.05, **=p<0.01, ***=p<0.001, ****=p<0.0001.
FIG. 15 Cellular activity of covalent, cyclic imine inhibitors to CBX8. (A) qRT-PCR analysis of HOXA9 gene expression in THP1 cells after 48 h of compound treatment at the indicated dose. N=3. Error bars represent s.d. Statistical significance calculated using student's t-test. **=p<0.01, ****=p<0.0001. (B) qRT-PCR analysis of HOXA9 gene expression in THP1 cells treated with increasing doses of compound for 48 h. N=3. Error bars represent s.d.
Imine inhibitors were assessed for improved cellular activity using a disease-relevant cell model. […] Using this same model, we compared the covalent inhibitors with non-covalent inhibitor SW2_110A in THP1 cell lines. […] The two optimal inhibitors P1bP and P2 were subsequently tested for dose-dependency in this cellular assay. Dose curves indicate that these covalent inhibitors have 30 to 100-fold improvement of cellular activity compared to the non-covalent inhibitor (FIG. 15B).

[5] = target: T3, endogenous CBX8 (Homo sapiens, UniProt Q9HC52); assay: In-gel fluorescence labeling in HEK293T cell lysates; format: binding; details: ~20 μM, 20 eq competitor with P2
T3 sequence (Q9HC52 1-389): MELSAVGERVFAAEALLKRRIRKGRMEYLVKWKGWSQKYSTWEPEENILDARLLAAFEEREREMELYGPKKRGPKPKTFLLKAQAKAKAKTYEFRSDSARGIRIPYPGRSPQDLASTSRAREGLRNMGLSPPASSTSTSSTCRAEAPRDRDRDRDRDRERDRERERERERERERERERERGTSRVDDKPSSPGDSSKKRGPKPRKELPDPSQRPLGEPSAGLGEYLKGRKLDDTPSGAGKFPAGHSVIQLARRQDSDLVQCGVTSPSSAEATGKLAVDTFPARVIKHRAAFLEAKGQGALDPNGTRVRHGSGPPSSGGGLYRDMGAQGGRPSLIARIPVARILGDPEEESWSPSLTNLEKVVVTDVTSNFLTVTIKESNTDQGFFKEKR
Description: After incubation of the inhibitor P2 at 1 μM in HEK293T cell lysates for 1 h at 37° C., click chemistry was conducted to conjugate TAMRA-azide to the C-terminal alkyne of P2 prior to SDS-PAGE.

[6] = target: T4, CBX8 ChD (Homo sapiens, UniProt Q9HC52); details: cited from earlier work
T4 construct: recombinant CBX8 chromodomain (ChD)
T4 sequence (Q9HC52 11-69 limits assumed): T1 sequence (Q9HC52 11-69 limits assumed)

[7] = system: CBX8 binding to chromatin; CBX8-mediated gene expression; details: MLL-AF9 transformed leukemia; cited from earlier work

degradation ([1]; 100 mM HCl, 100 mM NaOH and neutral PBS, 96 h, room temperature)	conversion of imine to amine on NaBH3CN after 24-hour incubation in PBS ([1]; 24 h PBS, then sodium cyanoborohydride (10 eq.))	time-dependent change of potency (IC50) [2]	IC50 without additional incubation time (in words) [2]	pIC50 [3]	effect on P2 protein labeling on co-incubation [5]	SMILES	reduction of HOXA9 gene expression, 10 μM P1b vs 100 μM SW2_110A ([4]; 10 μM P1b vs 100 μM SW2_110A)	reduction of HOXA9 expression versus non-covalent inhibitor ([4]; THP1, 48 h, vs SW2_110A)	selectivity over CBX2 ([6]; CBX8 over CBX2)	pKd [6]	selectivity for CBX8 over CBX4, CBX6, and CBX7 ([6]; in words)	CBX8-mediated gene expression [7]	inhibition of CBX8 binding to chromatin [7]
no significant degradation	full conversion of imine to amine	time-dependent increase of potency	comparable IC50 values	5.14	–	CC[C@H](C)[C@H](NC(=O)[C@@H](NC(=O)c1ccc(Oc2ccccc2)cc1)C1CCCC1)C(=O)N[C@@H](CCCCN(CC)CCCCCCN1CCN=CC1=O)C(=O)N[C@@H](CO)C(N)=O [Compound P1b]	reduced gene expression to a similar extent as 100 μM SW2_110A	most effective at reducing HOXA9 gene expression	–	–	–	–	–
–	–	did not	comparable IC50 values	–	protein labeling was reduced	CC[C@H](C)[C@H](NC(=O)[C@@H](NC(=O)c1ccc(Oc2ccccc2)cc1)C1CCCC1)C(=O)N[C@@H](CCCCN(CC)CC)C(=O)N[C@@H](CO)C(N)=O [SW2_110A] ({Benzoyl(4-OPh)}-[Gly(cPent)]I[Lys(Et2)]S-NH2)	–	–	6 fold	6.10	high selectivity	reduces CBX8-mediated gene expression	inhibits CBX8 binding to chromatin
